Experimental findings from patent US8450454B2, “Compositions for inhibiting ABAD/ABeta protein interaction” (The Trustees of Columbia University in the City of New York, priority 2004, dated 2013) are described below.

Ends that are not written are not given here.

The target in data set [1] is T1, ABAD-Aβ (1-40) interaction (Homo sapiens, UniProt P05067).
T1 construct: made in house
The data set can be described thus: Surface plasmon resonance (Biacore): inhibition of Aβ (1-40) binding to immobilized ABAD. As to conditions: one-site competitive inhibition fit. The procedure: (§1) 3) and ABAD reverse peptide (ABAD-RP, residues 120-92) were synthesized by Biotechnology Lab at Yale University. For binding studies, ABAD was immobilized on CM5 sensor chip (29). […] The reaction/binding buffer contained 50 mM Hepes at pH 7.4, 0.15 M NaCl, 1 mM EDTA, and 0.005% Tween 20. Data analysis was performed using Biacore X biosensor system (Uppsala, Sweden) and BIA evaluation 3.0 software (Biacore, Sweden). Response data are plotted in Resonance Units versus ABAD peptide concentrations (nM), and were fit to a one-site model for competitive inhibition to obtain the Ki.
For orientation: In SPR one partner is held on a chip, and binding of the other changes the refractive index at the surface.

Data set [2] has as its system cultured neurons. Put plainly: DNA fragmentation (Cell Death Detection ELISA) in cultured neurons. Format: cell-based, mouse. As to conditions: neurons from Tg mAPP/ABAD mice (spontaneous) and Tg ABAD mice exposed to Aβ, peptide pretreatment. For orientation: An ELISA detects its analyte on a solid surface through an enzyme-linked reagent.
Data set [3] has as its target T2, ABAD-Aβ (1-42) interaction (Homo sapiens, UniProt P05067).
T2 construct: made in house
Put plainly: Surface plasmon resonance (Biacore): inhibition of Aβ (1-42) binding to immobilized ABAD. As to conditions: one-site competitive inhibition fit. The method, then:
as §1

For data set [4], the system named is cultured neurons. The data set can be described thus: LDH release from cultured neurons. In kind it is cell-based, mouse. The settings on record: neurons from Tg mAPP/ABAD mice (spontaneous) and Tg ABAD mice exposed to Aβ, peptide pretreatment. Background: Release of lactate dehydrogenase indicates damage to the cell membrane.
Another data set addresses T3, ABAD (Homo sapiens, UniProt Q99714).
T3 construct: made in house
T3 sequence (Q99714 1-261): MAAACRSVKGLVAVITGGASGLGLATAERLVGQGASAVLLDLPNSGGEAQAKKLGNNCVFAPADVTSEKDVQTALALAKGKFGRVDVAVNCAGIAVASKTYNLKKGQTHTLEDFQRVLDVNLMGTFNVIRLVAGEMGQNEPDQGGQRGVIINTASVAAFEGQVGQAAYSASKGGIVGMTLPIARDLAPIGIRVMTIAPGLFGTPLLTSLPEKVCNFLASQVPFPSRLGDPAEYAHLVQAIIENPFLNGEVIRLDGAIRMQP
Put plainly: Binding of fluorescein-labeled ABAD to amyloid-related peptide immobilized on microtiter wells.

The target of another data set is Aβ (1-42) (Homo sapiens, UniProt P05067). Put plainly: Binding of 125I-labeled GST-ABAD or ABAD mutants to immobilized Aβ (1-42). Also on record: key: +: Specific binding comparable to that observed with wild type ABAD; −: No observed specific binding. As to conditions: 125I-labeled GST-ABAD or ABAD to immobilized Aβ (1-42).
Sequence of Aβ (1-42) (P05067 672-713): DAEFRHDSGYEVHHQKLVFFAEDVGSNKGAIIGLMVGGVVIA
Another data set concerns the target Aβ (1-40) (Homo sapiens, UniProt P05067). Put plainly: Surface plasmon resonance: Aβ (1-40) binding to immobilized wild-type or mutant ABAD. The settings on record: ABAD immobilized on sensor chip, Aβ (1-40) mobile phase. The procedure: […]; SEQ ID NO. 3) and ABAD reverse peptide (ABAD-RP, residues 120-92) were synthesized by Biotechnology Lab at Yale University. For binding studies, ABAD was immobilized on CM5 sensor chip (29). […] The reaction/binding buffer contained 50 mM Hepes at pH 7.4, 0.15 M NaCl, 1 mM EDTA, and 0.005% Tween 20. Data analysis was performed using Biacore X biosensor system (Uppsala, Sweden) and BIA evaluation 3.0 software (Biacore, Sweden). Response data are plotted in Resonance Units versus ABAD peptide concentrations (nM), and were fit to a one-site model for competitive inhibition to obtain the Ki.

T2 sequence (P05067 672-713): as above
T1 sequence (P05067 672-711): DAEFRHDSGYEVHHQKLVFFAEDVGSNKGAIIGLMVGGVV
Sequence of Aβ (1-40) (P05067 672-711): as above

Consider “VDLVRQFDELTHTQGKKLNYTKSAVAIGA [ABAD-RP, reference compound]”, for which, in data set [1], the “inhibitory constant, binding of Aβ (1-40) to immobilized intact ABAD” value is “completely inactive”. The “DNA fragmentation (cytotoxicity)” value in the data set on cultured neurons [2] is on record as “not”. In addition, the “inhibitory constant, binding of Aβ (1-42) to immobilized intact ABAD” value in data set [3] is “completely inactive”. Take `CC[C@H](C)[C@H](NC(=O)CNC(=O)[C@H](C)N)C(=O)N[C@@H](C)C(=O)N[C@H](C(=O)N[C@@H](C)C(=O)N[C@@H](CO)C(=O)N[C@@H](CCCCN)C(=O)N[C@H](C(=O)N[C@@H](Cc1ccc(O)cc1)C(=O)N[C@@H](CC(N)=O)C(=O)N[C@@H](CC(C)C)C(=O)N[C@@H](CCCCN)C(=O)N[C@@H](CCCCN)C(=O)NCC(=O)N[C@@H](CCC(N)=O)C(=O)N[C@H](C(=O)N[C@@H](Cc1c[nH]cn1)C(=O)N[C@H](C(=O)N[C@@H](CC(C)C)C(=O)N[C@@H](CCC(=O)O)C(=O)N[C@@H](CC(=O)O)C(=O)N[C@@H](Cc1ccccc1)C(=O)N[C@@H](CCC(N)=O)C(=O)N[C@@H](CCCNC(=N)N)C(=O)N[C@H](C(=O)N[C@@H](CC(C)C)C(=O)N[C@@H](CC(=O)O)C(=O)N[C@H](C(=O)O)C(C)C)C(C)C)[C@@H](C)O)[C@@H](C)O)[C@@H](C)O)C(C)C` [ABAD-DP]: the “LDH release (cytotoxicity)” value with cultured neurons [4] is recorded as “attenuated cytotoxicity”. Also, the “DNA fragmentation (cytotoxicity)” value with cultured neurons [2] was “attenuated cytotoxicity”. GSNKGAIIGLM [Aβ 25-35]: the “binding to ABAD (in words)” value at ABAD is reported as “no specific binding”. Also, the Kd (commonly the free concentration of one partner at which half of the binding sites on the other are occupied at equilibrium, for simple one-to-one binding) on ABAD (peptide immobilized on microtiter wells, fluorescein-labeled ABAD added) was above 1000 nM. `CC(C)C[C@H](NC(=O)[C@H](CCCCN)NC(=O)[C@H](CCC(N)=O)NC(=O)[C@H](Cc1c[nH]cn1)NC(=O)[C@H](Cc1c[nH]cn1)NC(=O)[C@@H](NC(=O)[C@H](CCC(=O)O)NC(=O)[C@H](Cc1ccc(O)cc1)NC(=O)CNC(=O)[C@H](CO)NC(=O)[C@H](CC(=O)O)NC(=O)[C@H](Cc1c[nH]cn1)NC(=O)[C@H](CCCNC(=N)N)NC(=O)[C@H](Cc1ccccc1)NC(=O)[C@H](CCC(=O)O)NC(=O)[C@H](C)NC(=O)[C@@H](N)CC(=O)O)C(C)C)C(=O)N[C@H](C(=O)N[C@@H](Cc1ccccc1)C(=O)N[C@@H](Cc1ccccc1)C(=O)O)C(C)C` [Aβ 1-20]: on ABAD, the “binding to ABAD (in words)” value was “dose-dependent binding”. Still for that read-out and setting: in the case of `CC[C@H](C)[C@H](NC(=O)[C@H](C)NC(=O)CNC(=O)[C@H](Cc1ccccc1)NC(=O)[C@H](CC(N)=O)NC(=O)[C@H](CC(N)=O)NC(=O)[C@H](CO)NC(=O)[C@H](CO)NC(=O)[C@H](Cc1c[nH]cn1)NC(=O)[C@@H](NC(=O)[C@H](CC(C)C)NC(=O)[C@H](Cc1ccccc1)NC(=O)[C@H](CC(N)=O)NC(=O)[C@H](C)NC(=O)[C@H](CC(C)C)NC(=O)[C@H](CCCNC(=N)N)NC(=O)[C@H](CCC(N)=O)NC(=O)[C@@H](NC(=O)[C@H](C)NC(=O)[C@@H]1CSSC[C@H](NC(=O)[C@@H](N)CCCCN)C(=O)N[C@@H](CC(N)=O)C(=O)N[C@@H]([C@@H](C)O)C(=O)N[C@@H](C)C(=O)N[C@@H]([C@@H](C)O)C(=O)N1)[C@@H](C)O)C(C)C)C(=O)N[C@@H](CC(C)C)C(=O)N[C@@H](CO)C(=O)N[C@@H](CO)C(=O)N[C@H](C(=O)N[C@@H](CC(N)=O)C(=O)N[C@H](C(=O)NCC(=O)N[C@@H](CO)C(=O)N[C@@H](CC(N)=O)C(=O)N[C@H](C(=O)N[C@@H](Cc1ccc(O)cc1)C(N)=O)[C@@H](C)O)C(C)C)[C@@H](C)O` [Amylin] it was “did not bind”.

B1: GST-ABAD(1-186): GST-ABAD truncation mutant, residues 1-186 (protein)
chain: MAAACRSVKGLVAVITGGASGLGLATAERLVGQGASAVLLDLPNSGGEAQAKKLGNNCVFAPADVTSEKDVQTALALAKGKFGRVDVAVNCAGIAVASKTYNLKKGQTHTLEDFQRVLDVNLMGTFNVIRLVAGEMGQNEPDQGGQRGVIINTASVAAFEGQVGQAAYSASKGGIVGMTLPIARDL
modifications: left off: a dimerising Fc or GST
Consider B1, for which the “Aβ Binding” value with Aβ (1-42) is on record as “+”.

B2: S98A, K99A, Y101A: site-directed ABAD mutant (protein, UniProt Q99714 2-261, looked up, variant S98A K99A Y101A)
3-hydroxyacyl-CoA …: AAACRSVKGLVAVITGGASGLGLATAERLVGQGASAVLLDLPNSGGEAQAKKLGNNCVFAPADVTSEKDVQTALALAKGKFGRVDVAVNCAGIAVAAATANLKKGQTHTLEDFQRVLDVNLMGTFNVIRLVAGEMGQNEPDQGGQRGVIINTASVAAFEGQVGQAAYSASKGGIVGMTLPIARDLAPIGIRVMTIAPGLFGTPLLTSLPEKVCNFLASQVPFPSRLGDPAEYAHLVQAIIENPFLNGEVIRLDGAIRMQP
As for B2, the “interaction with Aβ in surface plasmon resonance” value in the data set with Aβ (1-40) is reported as “no specific interaction”. The “Aβ Binding” value in the data set with Aβ (1-42) is given as “−”.

B3: GST-ABAD(1-158): GST-ABAD truncation mutant, residues 1-158 (protein)
chain: MAAACRSVKGLVAVITGGASGLGLATAERLVGQGASAVLLDLPNSGGEAQAKKLGNNCVFAPADVTSEKDVQTALALAKGKFGRVDVAVNCAGIAVASKTYNLKKGQTHTLEDFQRVLDVNLMGTFNVIRLVAGEMGQNEPDQGGQRGVIINTASVAA
modifications: left off: a dimerising Fc or GST
As for B3, the “Aβ Binding” value with Aβ (1-42) is “+”.

B4: GST-ABAD(159-261): GST-ABAD truncation mutant, residues 159-261 (protein)
chain: FEGQVGQAAYSASKGGIVGMTLPIARDLAPIGIRVMTIAPGLFGTPLLTSLPEKVCNFLASQVPFPSRLGDPAEYAHLVQAIIENPFLNGEVIRLDGAIRMQP
modifications: left off: a dimerising Fc or GST
With B4, in the data set with Aβ (1-42), the “Aβ Binding” value is listed as “−”.
